Results: BindingDB's records for doi:10.1016/j.bioorg.2016.04.005 (Comsats Institute of Information Technology, 2016)
pIC50: −log10 of the molar value.

Target: Urease subunit alpha (Sporosarcina pasteurii, UniProt P41020)
Test: Urease Inhibition Assay
Details: 30 °C
Description: Reaction mixtures comprising one unit of urease enzyme (B. pasteurii) solution and 55 uL of buffers containing 100 mMol urea were incubated with 5 uL of test compounds (1 mMol concentration) at 30° C for 15 min in 96-well plates. Urease activity was determined by measuring ammonia production using the indophenol'smethod. Momentarily, 45 uL each of phenol reagent and 70 uL of alkali reagent were added to each well. The increasing absorbance at 630 nm was measured after 50 min, using a micro-plate reader (Molecular Devices, USA). All reactions were performed in triplicate in a final volume of 200 uL. The results (change in absorbance per min.) were processed by using the Soft-Max Pro s4.5.Software (Molecular Devices, USA).

Urease subunit alpha, sequence (P41020 as listed by the source): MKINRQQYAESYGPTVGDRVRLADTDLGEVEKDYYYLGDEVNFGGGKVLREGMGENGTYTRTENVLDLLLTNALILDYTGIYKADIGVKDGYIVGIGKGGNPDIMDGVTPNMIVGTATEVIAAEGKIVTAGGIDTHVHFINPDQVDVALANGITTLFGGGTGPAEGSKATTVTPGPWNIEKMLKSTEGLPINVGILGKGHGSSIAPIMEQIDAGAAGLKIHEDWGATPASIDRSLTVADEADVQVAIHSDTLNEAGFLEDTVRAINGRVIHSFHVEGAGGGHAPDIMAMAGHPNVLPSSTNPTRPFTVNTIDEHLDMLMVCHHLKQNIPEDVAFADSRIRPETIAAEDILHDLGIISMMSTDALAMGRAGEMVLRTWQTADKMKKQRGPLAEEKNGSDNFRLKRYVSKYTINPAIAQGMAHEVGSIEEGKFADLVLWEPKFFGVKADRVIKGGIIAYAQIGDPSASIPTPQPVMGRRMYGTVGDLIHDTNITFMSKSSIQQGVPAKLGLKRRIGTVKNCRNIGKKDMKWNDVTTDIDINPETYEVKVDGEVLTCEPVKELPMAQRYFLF

| SMILES | pIC50 |
| --- | --- |
| CCCCCCCCC(=O)c1c(O)c2ccccc2oc1=O [3-Nonanoyl-(4-hydroxycoumarin) (4)] | 4.51 |
| CCCCCCCCCCCC(=O)c1c(O)c2ccccc2oc1=O [3-Lauroyl-(4-hydroxycoumarin) (6)] | 4.77 |
| NC(N)=S [thiocarbamide] | 4.68 |
| CCCCCCCCCC(=O)c1c(O)c2ccccc2oc1=O [3-Decanoyl-(4-hydroxycoumarin) (5)] | 4.89 |

Next, values leading:

| pIC50 | SMILES |
| --- | --- |
| 4.16 | O=c1oc2ccccc2c(O)c1S(=O)(=O)c1cccc2ccccc12 [3-(1-Naphthosulfonyl)-(4-hydroxycoumarin) (16)] |
| 4.53 | CS(=O)(=O)c1c(O)c2ccccc2oc1=O [3-(Methanesulfonoyl)-(4-hydroxycoumarin) (11)] |
| 4.95 | COc1cc(C(=O)c2c(O)c3ccccc3oc2=O)cc(OC)c1OC [3-(3,4,5-Trimethoxybenzoyl)-(4-hydroxycoumarin) (9)] |
